Measured values taken from ChEMBL document CHEMBL2424558, “Synthesis and biological evaluation of novel quinazoline derivatives obtained by Suzuki CC coupling” (2013).
Converted amounts (≈) assume the structure as drawn.

Key:
Assay type in all cases: functional
[1] = test system: Mycobacterium tuberculosis; test: Antimycobacterial activity against Mycobacterium tuberculosis H37Rv; details: for MIC: Mycobacterium tuberculosis, H37Rv
Candida albicans = test: Antifungal activity against Candida albicans MTCC 183; details: for MIC: Candida albicans, MTCC 183
Aspergillus niger = test: Antifungal activity against Aspergillus niger MTCC 282; details: for MIC: Aspergillus niger, MTCC 282
Klebsiella pneumoniae = test: Antibacterial activity against Klebsiella pneumoniae MTCC 109
Pseudomonas aeruginosa = test: Antibacterial activity against Pseudomonas aeruginosa MTCC 741
Escherichia coli = test: Antibacterial activity against Escherichia coli MTCC 739
Bacillus cereus = test: Antibacterial activity against Bacillus cereus MTCC 430
Staphylococcus aureus = test: Antibacterial activity against Staphylococcus aureus MTCC 96
[2] = Klebsiella pneumoniae, MTCC 109
[3] = Pseudomonas aeruginosa, MTCC 741

## Cc1cccc(Oc2nc(-c3ccc(NC(=O)Nc4ccc(F)cc4)cc3)nc3ccccc23)c1
[1]
  inhibition (INH): 97%
  MIC: 62.5 µg/mL (≈ 135 µM)
Candida albicans
  inhibition zone (IZ): 26 mm
  MIC: 12.5 µg/mL (≈ 26.9 µM)
Aspergillus niger
  inhibition zone (IZ): 23 mm
  MIC: 25 µg/mL (≈ 53.8 µM)
Klebsiella pneumoniae
  inhibition zone (IZ): 21 mm
Klebsiella pneumoniae; [2]
  MIC: 200 µg/mL (≈ 431 µM)
Pseudomonas aeruginosa
  inhibition zone (IZ): 23 mm
Pseudomonas aeruginosa; [3]
  MIC: 100 µg/mL (≈ 215 µM)
Escherichia coli
  inhibition zone (IZ): 23 mm
Escherichia coli; Escherichia coli, MTCC 739
  MIC: 62.5 µg/mL (≈ 135 µM)
Bacillus cereus
  inhibition zone (IZ): 21 mm
Bacillus cereus; Bacillus cereus, MTCC 430
  MIC: 100 µg/mL (≈ 215 µM)
Staphylococcus aureus
  inhibition zone (IZ): 22 mm
Staphylococcus aureus; Staphylococcus aureus, MTCC 96
  MIC: 200 µg/mL (≈ 431 µM)

## CCOc1ccc(NC(=O)Nc2ccc(-c3nc(Oc4cccc(C)c4)c4ccccc4n3)cc2)cc1
[1]
  inhibition (INH): 96%
  MIC: 100 µg/mL (≈ 204 µM)
Candida albicans
  inhibition zone (IZ): 27 mm
  MIC: 50 µg/mL (≈ 102 µM)
Aspergillus niger
  inhibition zone (IZ): 23 mm
  MIC: 50 µg/mL (≈ 102 µM)
Klebsiella pneumoniae
  inhibition zone (IZ): 25 mm
Klebsiella pneumoniae; [2]
  MIC: 25 µg/mL (≈ 51 µM)
Pseudomonas aeruginosa
  inhibition zone (IZ): 26 mm
Pseudomonas aeruginosa; [3]
  MIC: 50 µg/mL (≈ 102 µM)
Escherichia coli
  inhibition zone (IZ): 24 mm
Escherichia coli; Escherichia coli, MTCC 739
  MIC: 200 µg/mL (≈ 408 µM)
Bacillus cereus
  inhibition zone (IZ): 24 mm
Bacillus cereus; Bacillus cereus, MTCC 430
  MIC: 25 µg/mL (≈ 51 µM)
Staphylococcus aureus
  inhibition zone (IZ): 22 mm
Staphylococcus aureus; Staphylococcus aureus, MTCC 96
  MIC: 50 µg/mL (≈ 102 µM)

## GENTAMICIN
Klebsiella pneumoniae
  MIC: 25 µg/mL
  inhibition zone (IZ): 30 mm
Pseudomonas aeruginosa
  MIC: 12.5 µg/mL
Escherichia coli
  MIC: 12.5 µg/mL
Bacillus cereus
  MIC: 6.25 µg/mL
  inhibition zone (IZ): 30 mm
Staphylococcus aureus
  MIC: 6.25 µg/mL

## Cc1cccc(Oc2nc(-c3ccc(NC(=S)Nc4ccc(Br)cc4)cc3)nc3ccccc23)c1
[1]
  inhibition (INH): 99%
  MIC: 12.5 µg/mL (≈ 23.1 µM)
Candida albicans
  inhibition zone (IZ): 27 mm
  MIC: 12.5 µg/mL (≈ 23.1 µM)
Aspergillus niger
  inhibition zone (IZ): 23 mm
  MIC: 25 µg/mL (≈ 46.2 µM)
Klebsiella pneumoniae
  inhibition zone (IZ): 27 mm
Klebsiella pneumoniae; [2]
  MIC: 12.5 µg/mL (≈ 23.1 µM)
Pseudomonas aeruginosa
  inhibition zone (IZ): 25 mm
Pseudomonas aeruginosa; [3]
  MIC: 25 µg/mL (≈ 46.2 µM)
Escherichia coli
  inhibition zone (IZ): 25 mm
Escherichia coli; Escherichia coli, MTCC 739
  MIC: 50 µg/mL (≈ 92.3 µM)
Bacillus cereus
  inhibition zone (IZ): 26 mm
Bacillus cereus; Bacillus cereus, MTCC 430
  MIC: 12.5 µg/mL (≈ 23.1 µM)
Staphylococcus aureus
  inhibition zone (IZ): 29 mm
Staphylococcus aureus; Staphylococcus aureus, MTCC 96
  MIC: 6.25 µg/mL (≈ 11.5 µM)

## COc1ccc(NC(=S)Nc2ccc(-c3nc(Oc4cccc(C)c4)c4ccccc4n3)cc2)cc1
[1]
  inhibition (INH): 97%
  MIC: 100 µg/mL (≈ 203 µM)
Candida albicans
  inhibition zone (IZ): 28 mm
  MIC: 12.5 µg/mL (≈ 25.4 µM)
Aspergillus niger
  inhibition zone (IZ): 21 mm
  MIC: 50 µg/mL (≈ 102 µM)
Klebsiella pneumoniae
  inhibition zone (IZ): 24 mm
Klebsiella pneumoniae; [2]
  MIC: 50 µg/mL (≈ 102 µM)
Pseudomonas aeruginosa
  inhibition zone (IZ): 27 mm
Pseudomonas aeruginosa; [3]
  MIC: 25 µg/mL (≈ 50.8 µM)
Escherichia coli
  inhibition zone (IZ): 27 mm
Escherichia coli; Escherichia coli, MTCC 739
  MIC: 25 µg/mL (≈ 50.8 µM)
Bacillus cereus
  inhibition zone (IZ): 24 mm
Bacillus cereus; Bacillus cereus, MTCC 430
  MIC: 50 µg/mL (≈ 102 µM)
Staphylococcus aureus
  inhibition zone (IZ): 25 mm
Staphylococcus aureus; Staphylococcus aureus, MTCC 96
  MIC: 12.5 µg/mL (≈ 25.4 µM)

## OC(Cn1cncn1)(Cn1cncn1)c1ccc(F)cc1F [FLUCONAZOLE]
Candida albicans
  inhibition zone (IZ): 31 mm
  MIC: 12.5 µg/mL (≈ 40.8 µM)
Aspergillus niger
  inhibition zone (IZ): 30 mm
  MIC: 6.25 µg/mL (≈ 20.4 µM)

## CC[C@@H](CO)NCCN[C@@H](CC)CO [ETHAMBUTOL]
[1]
  inhibition (INH): 99%
  MIC: 3.12 µg/mL (≈ 15.3 µM)

## NNC(=O)c1ccncc1 [ISONIAZID]
[1]
  MIC: 0.2 µg/mL (≈ 1.46 µM)

## NC(=O)c1cnccn1 [PYRAZINAMIDE]
[1]
  inhibition (INH): 99%
  MIC: 6.25 µg/mL (≈ 50.8 µM)

## Cc1cccc(Oc2nc(-c3ccc(NC(=O)Nc4ccc(Br)cc4)cc3)nc3ccccc23)c1
[1]
  inhibition (INH): 99%
  MIC: 25 µg/mL (≈ 47.6 µM)
Candida albicans
  inhibition zone (IZ): 24 mm
  MIC: 50 µg/mL (≈ 95.2 µM)
Aspergillus niger
  inhibition zone (IZ): 22 mm
  MIC: 62.5 µg/mL (≈ 119 µM)
Klebsiella pneumoniae
  inhibition zone (IZ): 24 mm
Klebsiella pneumoniae; [2]
  MIC: 50 µg/mL (≈ 95.2 µM)
Pseudomonas aeruginosa
  inhibition zone (IZ): 25 mm
Pseudomonas aeruginosa; [3]
  MIC: 25 µg/mL (≈ 47.6 µM)
Escherichia coli
  inhibition zone (IZ): 27 mm
Escherichia coli; Escherichia coli, MTCC 739
  MIC: 62.5 µg/mL (≈ 119 µM)
Bacillus cereus
  inhibition zone (IZ): 28 mm
Bacillus cereus; Bacillus cereus, MTCC 430
  MIC: 12.5 µg/mL (≈ 23.8 µM)
Staphylococcus aureus
  inhibition zone (IZ): 24 mm
Staphylococcus aureus; Staphylococcus aureus, MTCC 96
  MIC: 12.5 µg/mL (≈ 23.8 µM)

## Cc1cccc(Oc2nc(-c3ccc(NC(=S)Nc4ccc(Cl)cc4)cc3)nc3ccccc23)c1
[1]
  inhibition (INH): 98%
  MIC: 25 µg/mL (≈ 50.3 µM)
Candida albicans
  inhibition zone (IZ): 28 mm
  MIC: 25 µg/mL (≈ 50.3 µM)
Aspergillus niger
  inhibition zone (IZ): 24 mm
  MIC: 12.5 µg/mL (≈ 25.1 µM)
Klebsiella pneumoniae
  inhibition zone (IZ): 27 mm
Klebsiella pneumoniae; [2]
  MIC: 25 µg/mL (≈ 50.3 µM)
Pseudomonas aeruginosa
  inhibition zone (IZ): 26 mm
Pseudomonas aeruginosa; [3]
  MIC: 12.5 µg/mL (≈ 25.1 µM)
Escherichia coli
  inhibition zone (IZ): 27 mm
Escherichia coli; Escherichia coli, MTCC 739
  MIC: 25 µg/mL (≈ 50.3 µM)
Bacillus cereus
  inhibition zone (IZ): 27 mm
Bacillus cereus; Bacillus cereus, MTCC 430
  MIC: 50 µg/mL (≈ 101 µM)
Staphylococcus aureus
  inhibition zone (IZ): 24 mm
Staphylococcus aureus; Staphylococcus aureus, MTCC 96
  MIC: 12.5 µg/mL (≈ 25.1 µM)

## Cc1cccc(Oc2nc(-c3ccc(NC(=O)Nc4ccccc4)cc3)nc3ccccc23)c1
[1]
  inhibition (INH): 95%
  MIC: 250 µg/mL (≈ 560 µM)
Candida albicans
  inhibition zone (IZ): 23 mm
  MIC: 250 µg/mL (≈ 560 µM)
Aspergillus niger
  inhibition zone (IZ): 22 mm
  MIC: 200 µg/mL (≈ 448 µM)
Klebsiella pneumoniae
  inhibition zone (IZ): 19 mm
Klebsiella pneumoniae; [2]
  MIC: 100 µg/mL (≈ 224 µM)
Pseudomonas aeruginosa
  inhibition zone (IZ): 21 mm
Pseudomonas aeruginosa; [3]
  MIC: 62.5 µg/mL (≈ 140 µM)
Escherichia coli
  inhibition zone (IZ): 23 mm
Escherichia coli; Escherichia coli, MTCC 739
  MIC: 100 µg/mL (≈ 224 µM)
Bacillus cereus
  inhibition zone (IZ): 20 mm
Bacillus cereus; Bacillus cereus, MTCC 430
  MIC: 250 µg/mL (≈ 560 µM)
Staphylococcus aureus
  inhibition zone (IZ): 22 mm
Staphylococcus aureus; Staphylococcus aureus, MTCC 96
  MIC: 200 µg/mL (≈ 448 µM)

## Cc1cccc(Oc2nc(-c3ccc(NC(=S)Nc4ccc(F)cc4)cc3)nc3ccccc23)c1
[1]
  inhibition (INH): 96%
  MIC: 50 µg/mL (≈ 104 µM)
Candida albicans
  inhibition zone (IZ): 25 mm
  MIC: 6.25 µg/mL (≈ 13 µM)
Aspergillus niger
  inhibition zone (IZ): 22 mm
  MIC: 50 µg/mL (≈ 104 µM)
Klebsiella pneumoniae
  inhibition zone (IZ): 24 mm
Klebsiella pneumoniae; [2]
  MIC: 100 µg/mL (≈ 208 µM)
Pseudomonas aeruginosa
  inhibition zone (IZ): 25 mm
Pseudomonas aeruginosa; [3]
  MIC: 50 µg/mL (≈ 104 µM)
Escherichia coli
  inhibition zone (IZ): 27 mm
Escherichia coli; Escherichia coli, MTCC 739
  MIC: 25 µg/mL (≈ 52 µM)
Bacillus cereus
  inhibition zone (IZ): 27 mm
Bacillus cereus; Bacillus cereus, MTCC 430
  MIC: 200 µg/mL (≈ 416 µM)
Staphylococcus aureus
  inhibition zone (IZ): 24 mm
Staphylococcus aureus; Staphylococcus aureus, MTCC 96
  MIC: 25 µg/mL (≈ 52 µM)

## CCOc1ccc(NC(=S)Nc2ccc(-c3nc(Oc4cccc(C)c4)c4ccccc4n3)cc2)cc1
[1]
  inhibition (INH): 95%
  MIC: 200 µg/mL (≈ 395 µM)
Candida albicans
  inhibition zone (IZ): 22 mm
  MIC: 50 µg/mL (≈ 98.7 µM)
Aspergillus niger
  inhibition zone (IZ): 26 mm
  MIC: 25 µg/mL (≈ 49.3 µM)
Klebsiella pneumoniae
  inhibition zone (IZ): 23 mm
Klebsiella pneumoniae; [2]
  MIC: 25 µg/mL (≈ 49.3 µM)
Pseudomonas aeruginosa
  inhibition zone (IZ): 26 mm
Pseudomonas aeruginosa; [3]
  MIC: 12.5 µg/mL (≈ 24.7 µM)
Escherichia coli
  inhibition zone (IZ): 24 mm
Escherichia coli; Escherichia coli, MTCC 739
  MIC: 62.5 µg/mL (≈ 123 µM)
Bacillus cereus
  inhibition zone (IZ): 19 mm
Bacillus cereus; Bacillus cereus, MTCC 430
  MIC: 100 µg/mL (≈ 197 µM)
Staphylococcus aureus
  inhibition zone (IZ): 22 mm
Staphylococcus aureus; Staphylococcus aureus, MTCC 96
  MIC: 12.5 µg/mL (≈ 24.7 µM)

## Cc1cccc(Oc2nc(-c3ccc(NC(=S)Nc4ccccc4)cc3)nc3ccccc23)c1
[1]
  inhibition (INH): 95%
  MIC: 100 µg/mL (≈ 216 µM)
Candida albicans
  inhibition zone (IZ): 25 mm
  MIC: 200 µg/mL (≈ 432 µM)
Aspergillus niger
  inhibition zone (IZ): 23 mm
  MIC: 50 µg/mL (≈ 108 µM)
Klebsiella pneumoniae
  inhibition zone (IZ): 22 mm
Klebsiella pneumoniae; [2]
  MIC: 200 µg/mL (≈ 432 µM)
Pseudomonas aeruginosa
  inhibition zone (IZ): 25 mm
Pseudomonas aeruginosa; [3]
  MIC: 50 µg/mL (≈ 108 µM)
Escherichia coli
  inhibition zone (IZ): 26 mm
Escherichia coli; Escherichia coli, MTCC 739
  MIC: 250 µg/mL (≈ 540 µM)
Bacillus cereus
  inhibition zone (IZ): 24 mm
Bacillus cereus; Bacillus cereus, MTCC 430
  MIC: 50 µg/mL (≈ 108 µM)
Staphylococcus aureus
  inhibition zone (IZ): 27 mm
Staphylococcus aureus; Staphylococcus aureus, MTCC 96
  MIC: 200 µg/mL (≈ 432 µM)

## CC1(C)S[C@@H]2[C@H](NC(=O)[C@H](N)c3ccccc3)C(=O)N2[C@H]1C(=O)O [AMPICILLIN]
Klebsiella pneumoniae
  inhibition zone (IZ): 33 mm
Klebsiella pneumoniae; [2]
  MIC: 25 µg/mL (≈ 71.5 µM)
Pseudomonas aeruginosa
  inhibition zone (IZ): 28 mm
Pseudomonas aeruginosa; [3]
  MIC: 25 µg/mL (≈ 71.5 µM)
Escherichia coli
  inhibition zone (IZ): 31 mm
Escherichia coli; Escherichia coli, MTCC 739
  MIC: 6.25 µg/mL (≈ 17.9 µM)
Bacillus cereus
  inhibition zone (IZ): 28 mm
Bacillus cereus; Bacillus cereus, MTCC 430
  MIC: 12.5 µg/mL (≈ 35.8 µM)
Staphylococcus aureus
  inhibition zone (IZ): 30 mm
Staphylococcus aureus; Staphylococcus aureus, MTCC 96
  MIC: 12.5 µg/mL (≈ 35.8 µM)

## CO[C@H]1/C=C/O[C@@]2(C)Oc3c(C)c(O)c4c(O)c(c(/C=N/N5CCN(C)CC5)c(O)c4c3C2=O)NC(=O)/C(C)=C\C=C\[C@H](C)[C@H](O)[C@@H](C)[C@@H](O)[C@@H](C)[C@H](OC(C)=O)[C@@H]1C [RIFAMPIN]
[1]
  inhibition (INH): 99%
  MIC: 0.25 µg/mL (≈ 0.304 µM)
